The text below walks through data of patent publication US12187663B2, “Thyromimetics with a biphenylmethane scaffold and their use” (INTERNATIONAL SOCIETY FOR DRUG DEVELOPMENT S.R.L., priority 2019, dated 2025).

Structures are written as SMILES.

One data set has as its system hepatocytes. Briefly: Mitotic activity of hepatocytes (BrdU incorporation). The following applies: 3 days; for hepatocyte proliferation (mitogenic effect): i.p. injection 75 μg/100 g b.w.; for hepatocyte proliferation (BrdU incorporation): intragastric (i.g.) 50, 75 and 100 μg/100 g b.w. The format is in vivo, F344 rats. From the text: FIG. 7. […] A. Labeling Index (L.I.) of hepatocytes from F344 rats subjected to the treatment with test compounds was expressed as number of BrdU-positive hepatocyte nuclei/100 nuclei. Results were expressed as means±S.E. of 3-5 rats per group. At least 3000 hepatocytes per liver were scored. *P<0.05; **P<0.01.
(§1) Five-week-old male F-344 rats purchased from Charles River (Milano, Italy) were maintained on a standard laboratory diet (Ditta Mucedola, Milano, Italy). The animals were given food and water ad libitum with a 12-h light/dark daily cycle and were acclimated for 1 week before the start of the experiment. All procedures were performed in accordance with the Guidelines for the Care and Use of Laboratory Animals and were approved by the Italian Ministry of Health. […] A control group received the vehicle (DMSO 5% in corn oil). Additional two groups received daily injections of either IS25 or TG68 at the dose of 75 μg/100 g b.wt. intraperitoneally for 3 days. For the measurement of hepatocyte proliferation, animals received bromodeoxyuridine (BrdU; 1 g/1 L) in drinking water during the 3-day treatment period (FIGS. 7A and B).
In general terms: Dividing cells build labelled thymidine or BrdU into new DNA.

Data set [1] can be described thus: Serum levels of cholesterol, glucose, transaminases, amylase, lipase, bilirubin and triglycerides. The data set is classed as in vivo, F-344 rats. The following applies: rats, 3 days treatment. The procedure:
as §1
Lack of severe liver toxicity was confirmed by measuring the levels of serum transaminases and bilirubin (FIG. 8) that were within the range of normal values for F-344 rats of the same age (Charles River datasheet). Pancreas damage was also evaluated by measuring the levels of amylase and lipase.

Data set [2] in a line: Liver/body weight ratio in rats. The data set is classed as in vivo, F344 male rats. The following applies: 3 days daily; IS25 or TG68 50, 75, 100 μg/100 g b.w. i.g. or 75 μg/100 g i.p.; T3 20 μg/100 g b.w. The method, then: as §1
A control group received the vehicle (DMSO 5% in corn oil). Additional two groups received daily injections of either IS25 or TG68 at the dose of 75 μg/100 g b.w. intraperitoneally for 3 days.

The nature of data set [3]: Panel of early-toxicity assays (in vitro ADME-TOX profiling). The following applies: 10 μM of each compound. The procedure:
FIG. 5. ADME-TOX profiling In order to assess the ADME-TOX profile of new synthetized compounds a full panel of in vitro assays was performed. Cytotoxic effects were evaluated on 4 different cell lines (U2-OS, HEK293, hTERT, MCF-7) at 24 h and 48 h after treatment with new compounds. Cardiac toxicity was assessed evaluating the inhibition effect of compounds on the hERG ion-channel, an important anti-target involved in heart functionalities. Metabolic interference was evaluated testing inhibitory effects of new compounds on four isoforms of CYP450 (CYP2C9, CYP2C19, CYP2D6, CYP3A4). In order to assess off-target liabilities, the inhibitory effects have been assessed against several well-known off-targets. […] The data were collected and analyzed in the form of a traffic-light system using criteria shown below.
Test compounds (20 nL of 10 mM top concentration in 100% v/v DMSO), positive control (PC; Valinomycin with final concentration of 10 μM and 0.1% v/v DMSO) and NC (final 0.1% v/v DMSO) were added in an empty polystyrene 384-well cell culture microtiter plate using the Echo 550 Liquid Handler and stored at room temperature before cell's seeding. […] At 24 h and 48 h post-treatment, 20 μL/well of CTG detection mix were added, and plates were read using an EnVision Multilabel 2103 Reader after a 10-min incubation in the dark. […]

With `Cc1cc(OCC(=O)O)cc(C)c1Cc1ccc(N)c(C(C)C)c1` [IS25, 2-(4-(4-amino-3-isopropylbenzyl)-3,5-dimethylphenoxy)acetic acid], in the data set on hepatocytes, the “hepatocyte proliferation (mitogenic effect)” value is “the mitogenic effect was lost” and the “hepatocyte proliferation (BrdU incorporation)” value was “induced a dose dependent hepatocyte proliferation”. In addition, in data set [1], the “serum amylase (pancreas damage)” value is listed as “No significant changes”, the serum cholesterol result is “no change”, the serum glucose result was “no change” and the “serum lipase (pancreas damage)” value is reported as “No significant changes”. Further, in data set [2], the liver/body weight ratio entry is reported as “no such effect was observed”. The “early-toxicity / liability profile (% inhibition heat map)” value in data set [3] was “safer profile”.
For the molecule `CC(=O)Nc1ccc(Cc2c(C)cc(OCC(=O)O)cc2C)cc1C(C)C` [TG68, 2-(4-(4-acetamido-3-isopropylbenzyl)-3,5-dimethylphenoxy)acetic acid], in the data set with hepatocytes, the “hepatocyte proliferation (mitogenic effect)” value is “the mitogenic effect was lost” and the “hepatocyte proliferation (BrdU incorporation)” value is given as “induced a dose dependent hepatocyte proliferation”. Besides, in data set [1], the “serum amylase (pancreas damage)” value is “No significant changes”, the serum cholesterol entry was “no change”, the serum glucose result was “no change” and the “serum lipase (pancreas damage)” value is “No significant changes”. Moreover, the liver/body weight ratio result in data set [2] is listed as “no such effect was observed”. Further, in data set [3], the “early-toxicity / liability profile (% inhibition heat map)” value is given as “safer profile”.
